Test results as given in US8110398B2, “Stable cell lines and methods for evaluating gastrointestinal absorption of chemicals” (Absorption Systems Group, LLC, priority 2006, dated 2012).

Assays:
C2BBE1 cells = details: reference values; cited from earlier work
[1] = reference values; cited from earlier work
P-gp = P-gp (Homo sapiens, UniProt P08183); assay: Calcein-AM assay; details: for RFU/μg of protein: 30 minutes
Procedure: Calcein-AM assay. To determine activity of the P-gp protein, calcein-AM assays were conducted.
To determine the P-gp activity, cells were plated in 96-well tissue culture plates and cultured for 48. After 48 hours, cell culture media was removed and the cells were washed with phosphate buffered saline solution (PBS). After washing, cells were incubated with 1 μM calcein-AM for 30 minutes. […] After incubation with calcein-AM, the cells were rinsed with fresh control buffer and fluorescence was measured using a Fluo-star fluorescence plate reader (BMG Lab Technologies, N.C.) with excitation and emission filters set at wavelengths of 485 nm and 538 nm, respectively.
Calcein-AM efflux is not mediated by BCRP. Therefore, any increase in calcein-AM uptake by the cells can be attributed to P-gp inhibition. The cells were plated in 96-well tissue culture plates and cultured for 48 hours. After 48 hours, cell culture media was removed and the cells were washed with phosphate buffered saline solution (PBS). After washing, cells were incubated with 1 μM calcein-AM for 30 minutes. […] After incubation with calcein-AM, the cells were rinsed with fresh control buffer and fluorescence was measured using a Fluo-star fluorescence plate reader (BMG Lab Technologies, N.C.) with excitation and emission filters set at wavelengths of 485 nm and 538 nm, respectively. The assay was carried out after each clone had been passaged 9 times.

P-gp mRNA = assay: RT-PCR of P-gp mRNA expression in transduced C2BBe1 cells; format: cell-based, human; details: RT-PCR, shRNA/P-gp clone cells
Procedure: (§1) RT-PCR. Total RNA was extracted from cells according to the following protocol. Cells were harvested from culture by centrifugation, resuspended in 1 ml of TRIzol® reagent (Invitrogen, Carlsbad, Calif.), and incubated at room temperature for 5 minutes with gentle shaking. The suspension was transferred to a 1.5 ml centrifuge tube, to which 200 μl of Chloroform was added, followed by an additional 5 minute incubation period with shaking. After incubation, the suspension was centrifuged at 12,000×g for 12 minutes at 4° C. The supernatant was transferred to a fresh, sterile 1.5 ml centrifuge tube, and supplemented with 0.5 ml of 2-propanaol per 1 ml of TRIzol reagent, and incubated for 10 minutes at room temperature. The mixture was then centrifuged at 12,000×g for an additional 12 minutes at 4° C. After centrifugation, the supernatant was removed and the pellet was washed with 75% ethanol. The sample was re-centrifuged at 7500×g for 5 minutes at 4° C., followed by the removal of the supernatant. The pellet was allowed to air dry at room temperature. The pellet was resuspended in pre-warmed (55° C.) nuclease-free water, and incubated at 55° C. for 10 minutes. RNA yield and purity were quantified by absorbance at 260 nm and 280 nm.
(§2) RT-PCR mixtures were set up as 50 μl samples containing buffer, 1-2 μg of RNA, 10 μM of Forward primer, 10 μM of Reverse primer, Taq polymerase, and water. Primers to amplify human P-gylcoprotein were as follows: P-gp Forward 5′-[…]-3′ (SEQ ID NO: 9); and, P-gp Reverse 5′-[…]-3′ (SEQ ID NO: 10). Primers to amplify human MRP2 were as follows: MRP2 Forward 5′-[…]-3′ (SEQ ID NO: 11); and, MRP2 Reverse 5′-[…]-3′ (SEQ ID NO: 12). Primes to amplify human BCRP were as follows: BCRP Forward 5′-[…] 3′ (SEQ ID NO: 13); and, BCRP Reverse 5′-[…] 3′ (SEQ ID NO: 14). Human β-actin was amplified in parallel as a positive control using the following primers: β-actin Forward 5′-[…]-3′ (SEQ ID NO: 15); and, β-actin Reverse 5′-[…]-3′ (SEQ ID NO: 16).
(§3) The PCR cycles proceeded in a programmable thermocycler with the following parameters: cDNA synthesis, 1 cycle, 55° C. for 30 minutes; denaturation, 1 cycle, 94° C. for 2 minutes; PCR amplification, 40 cycles of 94° C. for 15 seconds, 62° C. for 30 seconds, 72° C. for 1 minute; and, final extension, 1 cycle, 72° C. for 5 minutes. Amplification was confirmed by electrophoresis in 2% agarose gels.
Gene expression of P-gp in knockdown cells (shRNA/P-gp clones #83, 84, 85, 86, and 87) was determined by observing P-gp mRNA content, protein content and protein functional activity. RT-PCR was used to determine the expression of the P-gp mRNA. Total cellular RNA was harvested and amplified using primers specific to P-gp mRNA. RT-PCR products were then separated by electrophoresis on a 2% agarose gel. It was determined that 4 of the 5 shRNA/P-gp clone cells contained substantially less P-gp mRNA than control C2BBe1 cells (FIG. 2, top panel). β-actin was amplified, in parallel, as a positive control, and its expression was not affected by the interfering shRNA (FIG. 2, bottom panel).

MRP2 mRNA = assay: RT-PCR of MRP2 mRNA expression in transduced C2BBe1 cells; format: cell-based, human; details: for Percent decrease in ratio compared to control: MRP2 mRNA vs vector control; for Ratio of MRP2 band intensity to β-actin band intensity: RT-PCR, C2BBe1 cells, passages 2 to 5
Procedure: as §1, §2, §3
For this example, gene expression of MRP2 in C2BBe1 cells was determined by observing both the MRP2 mRNA content as well as the protein content of the cells following viral transduction. To examine mRNA content, total cellular RNA was harvested and amplified by RT-PCR using primers specific to the MRP2 gene (SEQ ID NO: 11 and 12). The RT-PCR products were then analyzed after separation by electrophoresis on a 2% agarose gel.
Vector control (VC) cells were prepared from cells transducted with lentiviruses encoding a non-interfering nucleic acid sequence (SEQ ID NO 27), as described in Example 7. Methods were described in Example 1. […]

Sequence of P-gp (P08183 whole entry): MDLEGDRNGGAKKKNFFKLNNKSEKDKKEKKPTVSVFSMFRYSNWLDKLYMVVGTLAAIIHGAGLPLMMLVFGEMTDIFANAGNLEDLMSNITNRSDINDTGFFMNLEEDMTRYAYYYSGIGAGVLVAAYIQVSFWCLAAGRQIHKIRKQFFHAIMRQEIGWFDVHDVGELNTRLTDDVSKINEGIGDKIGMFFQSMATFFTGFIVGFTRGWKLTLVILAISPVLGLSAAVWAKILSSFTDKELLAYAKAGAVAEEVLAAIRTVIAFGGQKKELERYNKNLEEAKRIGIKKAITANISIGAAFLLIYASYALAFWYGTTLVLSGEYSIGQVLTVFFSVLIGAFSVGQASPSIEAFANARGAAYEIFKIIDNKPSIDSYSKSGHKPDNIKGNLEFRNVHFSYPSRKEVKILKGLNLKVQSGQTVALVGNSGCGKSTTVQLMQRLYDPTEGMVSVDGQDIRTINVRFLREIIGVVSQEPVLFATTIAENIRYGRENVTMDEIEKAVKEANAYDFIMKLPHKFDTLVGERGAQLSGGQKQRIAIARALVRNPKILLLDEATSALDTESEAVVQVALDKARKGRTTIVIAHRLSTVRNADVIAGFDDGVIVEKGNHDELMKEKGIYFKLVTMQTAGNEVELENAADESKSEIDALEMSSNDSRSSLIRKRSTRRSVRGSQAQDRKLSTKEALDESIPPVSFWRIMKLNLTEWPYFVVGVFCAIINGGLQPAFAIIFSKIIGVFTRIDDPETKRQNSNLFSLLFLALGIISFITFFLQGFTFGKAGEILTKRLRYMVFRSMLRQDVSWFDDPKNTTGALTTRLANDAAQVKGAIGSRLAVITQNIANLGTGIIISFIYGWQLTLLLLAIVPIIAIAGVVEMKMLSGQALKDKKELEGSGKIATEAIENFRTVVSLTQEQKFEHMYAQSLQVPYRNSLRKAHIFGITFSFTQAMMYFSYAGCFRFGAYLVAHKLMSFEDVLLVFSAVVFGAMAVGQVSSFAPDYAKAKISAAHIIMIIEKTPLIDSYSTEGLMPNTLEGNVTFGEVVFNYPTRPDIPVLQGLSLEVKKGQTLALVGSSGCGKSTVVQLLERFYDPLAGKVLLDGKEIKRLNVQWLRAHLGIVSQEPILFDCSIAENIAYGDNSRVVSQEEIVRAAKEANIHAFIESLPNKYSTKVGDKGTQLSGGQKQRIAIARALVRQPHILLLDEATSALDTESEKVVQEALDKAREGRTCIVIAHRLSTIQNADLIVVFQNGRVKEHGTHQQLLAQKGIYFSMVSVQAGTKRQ

Compound: C=CCc1ccccc1OCC(O)CNC(C)C (stereo not drawn) [Alprenolol]
- Papp in C2BBE1 cells (C2BBE1 cells): 40.5 10^−6 cm/s
- % Absorption in human [1]: 93%

Compound: shRNA/P-gp #84: shRNA to human P-gp, SEQ ID NO: 2, lentivirally transduced into C2BBe1 cells; clone #84 (CCGGGCAGCAATTAGAACTGTGATTCTCGAGAATCACAGTTCTAATTGCTGCTTTTTG; listed as Homo Sapiens)
- P-gp function by intracellular calcein fluorescence (P-gp; transduced C2BBe1 cells vs Un-KD): significantly decreased
- P-gp mRNA expression relative to control C2BBe1 cells (P-gp mRNA): significantly reduced

Compound: C[C@]12C[C@H](O)[C@H]3[C@@H](CCC4=CC(=O)CC[C@@]43C)[C@@H]1CC[C@@H]2C(=O)CO [Corticosterone]
- % Absorption in human [1]: 100%

Compound: CC(=O)OCOC(=O)CN(CC(=O)OCOC(C)=O)Cc1cc2c(cc1OC(C)=O)Oc1cc(OC(C)=O)c(CN(CC(=O)OCOC(C)=O)CC(=O)OCOC(C)=O)cc1C21OC(=O)c2ccccc21 [calcein-AM]
- Normalized Mean Fluorescence (P-gp; Vector Control cells): 23.92
- Normalized Mean Fluorescence in the Presence of CSA (P-gp; Vector Control cells): 62.86
- Normalized Mean Fluorescence in the Presence of CSA (P-gp; shRNA/BCRP clone #801 cells, passage 20): 72.31
- Normalized Mean Fluorescence (P-gp; shRNA/BCRP clone #801 cells, passage 20, normalized for total protein): 5.08
- % decrease of Calcein-AM compared to vector control (P-gp; shRNA/BCRP clone cell #798): 0.33%
- RFU/μg of protein (P-gp; shRNA/BCRP clone cell #798, 1 μM calcein-AM, passaged 9 times): 10.13 RFU/μg of protein
- % decrease of Calcein-AM compared to vector control (P-gp; shRNA/BCRP clone cell #799): 31.18%
- RFU/μg of protein (P-gp; shRNA/BCRP clone cell #799, 1 μM calcein-AM, passaged 9 times): 6.99 RFU/μg of protein
- % decrease of Calcein-AM compared to vector control (P-gp; shRNA/BCRP clone cell #800): 58.07%
- RFU/μg of protein (P-gp; shRNA/BCRP clone cell #800, 1 μM calcein-AM, passaged 9 times): 4.26 RFU/μg of protein
- % decrease of Calcein-AM compared to vector control (P-gp; shRNA/BCRP clone cell #801): 89.37%
- RFU/μg of protein (P-gp; shRNA/BCRP clone cell #801, 1 μM calcein-AM, passaged 9 times): 1.08 RFU/μg of protein
- % decrease of Calcein-AM compared to vector control (P-gp; shRNA/BCRP clone cell #802): 33.42%
- RFU/μg of protein (P-gp; shRNA/BCRP clone cell #802, 1 μM calcein-AM, passaged 9 times): 6.76 RFU/μg of protein
- RFU/μg of protein (P-gp; vector control cells, 1 μM calcein-AM): 10.16 RFU/μg of protein

Compound: CCOC(=O)C1=C(C)NC(C)=C(C(=O)OC)C1c1cccc(Cl)c1Cl (stereo not drawn) [Felodipine]
- Papp in C2BBE1 cells (C2BBE1 cells): 22.7 10^−6 cm/s

Compound: shRNA/MRP2 #3: interfering RNA to MRP2, SEQ ID NO: 17, lentivirally transduced into C2BBe1 cells; clone #3 (CCGGCGTGTATAAATCCAGGACCAACTCGAGTTGGTCCTGGATTTATACACGTTTTTG; listed as Homo Sapiens)
- Percent decrease in ratio compared to control (MRP2 mRNA): 15.12%
- Ratio of MRP2 band intensity to β-actin band intensity (MRP2 mRNA): 0.57

Compound: COCCc1ccc(OCC(O)CNC(C)C)cc1 (stereo not drawn) [Metoptolol]
- Papp in C2BBE1 cells (C2BBE1 cells): 27 10^−6 cm/s

Compound: shRNA/MRP2 #4: interfering RNA to MRP2, SEQ ID NO: 18, lentivirally transduced into C2BBe1 cells; clone #4 (CCGGCCTGGTGGATAGCAACAATATCTCGAGATATTGTTGCTATCCACCAGGTTTTTG; listed as Homo Sapiens)
- Percent decrease in ratio compared to control (MRP2 mRNA): 15.31%
- Ratio of MRP2 band intensity to β-actin band intensity (MRP2 mRNA): 0.57

Compound: C[C@@H]1C[C@H]2[C@@H]3CCC4=CC(=O)C=C[C@]4(C)[C@@]3(F)[C@@H](O)C[C@]2(C)[C@@]1(O)C(=O)CO [Dexamethasone]
- % Absorption in human [1]: 100%

Compound: O=C(O)c1cc(/N=N/c2ccc(O)c(C(=O)O)c2)ccc1O [Olsalazine]
- Papp in C2BBE1 cells (C2BBE1 cells): 0.11 10^−6 cm/s
- % Absorption in human [1]: 2%

Compound: OC[C@@H](O)[C@@H](O)[C@H](O)[C@H](O)CO [Mannitol]
- Papp in C2BBE1 cells (C2BBE1 cells): 0.18 10^−6 cm/s
- % Absorption in human [1]: 16%

Compound: shRNA/MRP2 #5: interfering RNA to MRP2, SEQ ID NO: 19, lentivirally transduced into C2BBe1 cells; clone #5 (CCGGGCATCTGAAGTCCCTGAGAAACTCGAGTTTCTCAGGGACTTCAGATGCTTTTTG; listed as Homo Sapiens)
- Percent decrease in ratio compared to control (MRP2 mRNA): 6.04%
- Ratio of MRP2 band intensity to β-actin band intensity (MRP2 mRNA): 0.63

Compound: shRNA/MRP2 #7: interfering RNA to MRP2, SEQ ID NO: 21, lentivirally transduced into C2BBe1 cells; clone #7 (CCGGCCATAGCTTCATTCCTGAGTACTCGAGTACTCAGGAATGAAGCTATGGTTTTTG; listed as Homo Sapiens)
- Percent decrease in ratio compared to control (MRP2 mRNA): 19.53%
- Ratio of MRP2 band intensity to β-actin band intensity (MRP2 mRNA): 0.54

Compound: CC(C)NCC(O)COc1cccc2ccccc12 (stereo not drawn) [Propranolol]
- Papp in C2BBE1 cells (C2BBE1 cells): 41.9 10^−6 cm/s

Compound: shRNA/MRP2 #6: interfering RNA to MRP2, SEQ ID NO: 20, lentivirally transduced into C2BBe1 cells; clone #6 (CCGGGCCGGTGGTCAGATTATCATTCTCGAGAATGATAATCTGACCACCGGCTTTTTG; listed as Homo Sapiens)
- Percent decrease in ratio compared to control (MRP2 mRNA): −7.59%
- Ratio of MRP2 band intensity to β-actin band intensity (MRP2 mRNA): 0.72

Compound: CC(=O)Oc1ccccc1C(=O)O [Acetylsalicylic acid]
- Papp in C2BBE1 cells (C2BBE1 cells): 2.4 10^−6 cm/s
- % Absorption in human [1]: 100%

Compound: 1-Deamino-8-D-arginine
- Papp in C2BBE1 cells (C2BBE1 cells): 0.13 10^−6 cm/s

Compound: NC(=O)CC[C@@H]1NC(=O)[C@H](Cc2ccccc2)NC(=O)[C@H](Cc2ccc(O)cc2)NC(=O)[C@@H](N)CSSC[C@@H](C(=O)N2CCC[C@H]2C(=O)N[C@@H](CCCN=C(N)N)C(=O)NCC(N)=O)NC(=O)[C@H](CC(N)=O)NC1=O [Arginine-vasopressin]
- Papp in C2BBE1 cells (C2BBE1 cells): 0.14 10^−6 cm/s
- % Absorption in human [1]: 0%

Compound: CC(C)(C)NCC(O)c1cc(O)cc(O)c1 (stereo not drawn) [Terbutaline]
- Papp in C2BBE1 cells (C2BBE1 cells): 0.38 10^−6 cm/s
- % Absorption in human [1]: 73%

Compound: CC(=O)Nc1ccc(OCC(O)CNC(C)C)cc1 (stereo not drawn) [Practolol]
- Papp in C2BBE1 cells (C2BBE1 cells): 0.9 10^−6 cm/s

Compound: C[C@]12CC[C@H]3[C@@H](CCC4=CC(=O)CC[C@@]43C)[C@@H]1CC[C@@H]2O [Testosterone]
- % Absorption in human [1]: 100%

Compound: CC(=O)CC(c1ccccc1)c1c(O)c2ccccc2oc1=O (stereo not drawn) [Warfarin]
- Papp in C2BBE1 cells (C2BBE1 cells): 38.3 10^−6 cm/s
